According to patent US6417195B1, “Isoquinoline derivatives and isoquinoline combinatorial libraries” (Lion Bioscience AG, priority 1999, dated 2002):

Test system: Streptococcus pyogenes
Test: Anti-microbial screen
Format: cell-based
Settings: growth at 4 hrs, OD 570 nm, Todd Hewitt Broth
Description: Streptococcus pyogenes (ATCC# 97-03 14289) were grown in Todd Hewitt Broth (THB) (Difco Laboratories #0492-17-6) overnight until they reached an optical density of (OD═0.636@ 570 nm) by reading 0.1 ml in a 96 well microtiter plate in a Molecular Devices Thermomax. This preparation was kept frozen as stocks in 30% v/v glycerol in 1.5 ml aliquots at −70° C. until use. Prior to experiments 1.5 ml aliquots were thawed and diluted into 50 ml THB. 200 ul of this dilution was added to 92 wells of microtiter plate. To three wells THB (200 ul) was added to serve as a blank and a sterility control. Test compounds in DMSO and appropriate concentrations of DMSO were added to Growth/Solvent Controls at 0 time. Plates were read at 0 time at 570 nm in the Molecular Devices plate reader to obtain compounds correction factors for insoluble or colored compounds. Plates were read again at 4 hrs.
Percent inhibition was calculated with the following formulae:
Color correct=(O.D. 0 hr−Blank 0 hr)−(Solvent Control 0 hr−Blank 0 hr)
% Inhibition=100−O.D. test compound 4 hr−Blank 4 hr−color correct
O.D. growth/solvent control 4 hr−Blank 4 hr

First: CN(C)CCN(CC(N)=O)C(=O)CCN1C(=O)c2ccccc2C(C(=O)NCCN2CCCC2)C1c1ccc(O)c(O)c1 (stereo not drawn) [Compound 2520-1]
Second: CN(C)CCN(CC(N)=O)C(=O)CCN1C(=O)c2ccccc2C(C(=O)NC2CCC(C(C)(C)C)CC2)C1c1ccc(O)c(O)c1 (stereo not drawn) [Compound 2520-2]
The “% Inhibition” value of the first is lower: 9% for the first, 94% for the second.

Going from `CCCCN(CCCC)CCN(CC(N)=O)C(=O)CCN1C(=O)c2ccccc2C(C(=O)NCCN(CC)c2cccc(C)c2)C1c1ccc(O)c(O)c1` (stereo not drawn) [Compound 2520-721] to `CCCCOCCCNC(=O)C1c2ccccc2C(=O)N(CCC(=O)N(CCN(CCCC)CCCC)CC(N)=O)C1c1ccc(O)c(O)c1` (stereo not drawn) [Compound 2520-722], the “% Inhibition” value falls from 86% to 58%.

Compared with `CCN1CCCC1CN(CC(N)=O)C(=O)CCN1C(=O)c2ccccc2C(C(=O)NCCCN2CCCCC2C)C1c1cccc([N+](=O)[O-])c1` (stereo not drawn) [Compound 2520-2341], `CCN1CCCC1CN(CC(N)=O)C(=O)CCN1C(=O)c2ccccc2C(C(=O)NCCCN2CCCCC2C)C1c1ccc(N(C)C)cc1` (stereo not drawn) [Compound 2520-7125] is lower in “% Inhibition” value: 104% for the first, 100% for the second.

Going from `CCN(CCNC(=O)C1c2ccccc2C(=O)N(CCC(=O)N(CC(N)=O)Cc2ccccc2)C1c1ccc(N(C)C)cc1)c1cccc(C)c1` (stereo not drawn) [Compound 2520-3137] to `CCCCOCCCNC(=O)C1c2ccccc2C(=O)N(CCC(=O)N(CC(N)=O)Cc2ccccc2)C1c1ccc(N(C)C)cc1` (stereo not drawn) [Compound 2520-3138], the “% Inhibition” value falls from 66% to 19%.

Going from `CCOC(=O)CC(C)NC(=O)C1c2ccccc2C(=O)N(CCC(=O)N(CCN(C)C)CC(N)=O)C1c1cccc(Oc2ccccc2)c1` (stereo not drawn) [Compound 2520-4745] to `C=CCNC(=O)C1c2ccccc2C(=O)N(CCC(=O)N(CCN(C)C)CC(N)=O)C1c1cccc(Oc2ccccc2)c1` (stereo not drawn) [Compound 2520-4746], the “% Inhibition” value rises from 99% to 100%.

Compared with `CCN(CCNC(=O)C1c2ccccc2C(=O)N(CCC(=O)N(CC(N)=O)NC(=O)OC)C1c1cc(C(F)(F)F)cc(C(F)(F)F)c1)c1cccc(C)c1` (stereo not drawn) [Compound 2520-5545], `CCCCOCCCNC(=O)C1c2ccccc2C(=O)N(CCC(=O)N(CC(N)=O)NC(=O)OC)C1c1cc(C(F)(F)F)cc(C(F)(F)F)c1` (stereo not drawn) [Compound 2520-5548] is lower in “% Inhibition” value: 86% for the first, 43% for the second.

Compared with `CCN1CCCC1CN(CC(N)=O)C(=O)CCN1C(=O)c2ccccc2C(C(=O)N2CCN(Cc3ccccc3)CC2)C1c1ccc(-c2ccccc2)cc1` (stereo not drawn) [Compound 2520-6332], `CCN1CCCC1CN(CC(N)=O)C(=O)CCN1C(=O)c2ccccc2C(C(=O)N2CCN(C)CC2)C1c1ccc(-c2ccccc2)cc1` (stereo not drawn) [Compound 2520-6333] is lower in “% Inhibition” value: 98% for the first, 78% for the second.

Going from `CCOC(=O)CCNC(=O)C1c2ccccc2C(=O)N(CCC(=O)N(CC(N)=O)CC2CCCN2CC)C1c1ccc(N(C)C)cc1` (stereo not drawn) [Compound 2520-7126] to `CCCCOCCCNC(=O)C1c2ccccc2C(=O)N(CCC(=O)N(CC(N)=O)CC2CCCN2CC)C1c1ccc(SC)cc1` (stereo not drawn) [Compound 2520-7922], the “% Inhibition” value rises from 26% to 87%.

First: CCN(CCNC(=O)C1c2ccccc2C(=O)N(CCC(=O)N(CC(N)=O)CC2CCCN2CC)C1c1ccc(SC)cc1)c1cccc(C)c1 (stereo not drawn) [Compound 2520-7921]
Second: CCN(CC)CCCC(C)NC(=O)C1c2ccccc2C(=O)N(Cc2ccc(C(=O)N(CC(N)=O)CC3CCCN3CC)cc2)C1c1ccc(O)cc1 (stereo not drawn) [Compound 2530-3185]
The “% Inhibition” value of the first is higher: 100% for the first, 4% for the second.

Going from `CN(C)CCN(CC(N)=O)C(=O)c1ccc(CN2C(=O)c3ccccc3C(C(=O)NCCN3CCCC3)C2c2ccccc2)cc1` (stereo not drawn) [Compound 2530-1] to `NC(=O)CN(CCN1CCCCC1)C(=O)c1ccc(CN2C(=O)c3ccccc3C(C(=O)NCCN3CCCC3)C2c2ccccc2)cc1` (stereo not drawn) [Compound 2530-865], the “% Inhibition” value falls from 44% to 20%.

Going from `CN(C)CCN(CC(N)=O)C(=O)c1ccc(CN2C(=O)c3ccccc3C(C(=O)NCc3cccnc3)C2c2ccccc2)cc1` (stereo not drawn) [Compound 2530-2] to `NC(=O)CN(CCN1CCCCC1)C(=O)c1ccc(CN2C(=O)c3ccccc3C(C(=O)NCc3cccnc3)C2c2ccccc2)cc1` (stereo not drawn) [Compound 2530-866], the “% Inhibition” value falls from 51% to 11%.

Compared with `CCCN(CC(N)=O)C(=O)C1CCC(CN2C(=O)c3ccccc3C(C(=O)NCCN3CCCC3)C2c2cccc(C)n2)CC1` (stereo not drawn) [Compound 2530-1537], `CCCN(CC(N)=O)C(=O)C1CCC(CN2C(=O)c3ccccc3C(C(=O)NCc3cccnc3)C2c2cccc(C)n2)CC1` (stereo not drawn) [Compound 2530-1538] is higher in “% Inhibition” value: 4% for the first, 15% for the second.

First: NC(=O)CN(CCN1CCOCC1)C(=O)c1ccc(CN2C(=O)c3ccccc3C3C(=O)N4CCN(Cc5ccccc5)c5c(-c6ccccc6)ccc(c54)C32)cc1 (stereo not drawn) [Compound 2530-2501]
Second: CSc1ccc2c3c1C(Br)CCN3C(=O)C1c3ccccc3C(=O)N(Cc3ccc(C(=O)N(CCc4ccc(Cl)cc4Cl)CC(N)=O)cc3)C21 (stereo not drawn) [Compound 2530-4401]
The “% Inhibition” value of the first is higher: 109% for the first, 45% for the second.

First: CCN1CCCC1CN(CC(N)=O)C(=O)c1ccc(CN2C(=O)c3ccccc3C(C(=O)NC3CCC(C(C)(C)C)CC3)C2c2ccc(O)cc2)cc1 (stereo not drawn) [Compound 2530-3186]
Second: CCc1ccc(C2C(C(=O)NCCN(C)C)c3ccccc3C(=O)N2Cc2ccc(C(=O)N(CCOC)CC(N)=O)cc2)cc1 (stereo not drawn) [Compound 2530-4162]
The “% Inhibition” value of the first is higher: 101% for the first, 30% for the second.

First: CSc1ccc(C2C(C(=O)NCCN(C)C)c3ccccc3C(=O)N2Cc2ccc(C(=O)N(CCc3ccc(Cl)cc3Cl)CC(N)=O)cc2)cc1 (stereo not drawn) [Compound 2530-4402]
Second: C=CCN(CC(N)=O)C(=O)c1ccc(CN2C(=O)c3ccccc3C(C(=O)NCCCCCCCCCCCC)C2c2ccc(O)cc2)cc1 (stereo not drawn) [Compound 2530-6448]
The “% Inhibition” value of the first is higher: 96% for the first, 53% for the second.

Compared with `CC(C)(C)C1CCC(NC(=O)C2c3ccccc3C(=O)N(CC3CCC(C(=O)N(CCCn4ccnc4)CC(N)=O)CC3)C2c2ccccc2)CC1` (stereo not drawn) [Compound 2530-4818], `NC(=O)CN(CCCn1ccnc1)C(=O)C1CCC(CN2C(=O)c3ccccc3C3C(=O)N4CCC(N5CCCC5)c5cccc(c54)C32)CC1` (stereo not drawn) [Compound 2530-4819] is lower in “% Inhibition” value: 61% for the first, 20% for the second.

With `C=CCN(CC(N)=O)C(=O)c1ccc(CN2C(=O)c3ccccc3C3C(=O)N4CCOc5c(O)ccc(c54)C32)cc1` (stereo not drawn) [Compound 2530-6447] the “% Inhibition” value was 8%.
